Laboratory results taken from ChEMBL document CHEMBL4392852, “Synthesis and characterization of hydrogen peroxide activated estrogen receptor beta ligands” (Bioorg Med Chem, 2019).

Experiments:
[1] = Drug metabolism in pH 7.4 PBS assessed as formation of DPN at 150 uM at 37 degC incubated for 1 hr in presence of 5 fold excess hypochlorite by HPLC analysis relative to untreated control
Estrogen receptor beta [2] = molecular target: T1, Estrogen receptor beta (Homo sapiens, UniProt Q92731); assay: Ratio of RBA for DPN to RBA for test compound for displacement of fluormone tracer from full length human recombinant ERbeta relative to estradiol
Estrogen receptor beta [3] = molecular target: T1, Estrogen receptor beta; assay: Activation of human ERbeta assessed as induction of transcriptional activation incubated for 24 hrs in presence of 50 uM H2O2 by luciferase reporter gene assay
[4] = Drug metabolism in pH 7.4 PBS in absence of H2O2 at 75 uM incubated at 37 degC for 4 hrs by UV spectroscopy
[5] = Drug metabolism in pH 7.4 PBS assessed as formation of DPN at 150 uM at 37 degC incubated for 1 hr in presence of 5 fold excess TBHP by HPLC analysis
[6] = Drug metabolism in pH 7.4 PBS assessed as formation of DPN at 150 uM at 37 degC incubated for 1 hr in presence of 5 fold excess hydroxyl radical by HPLC analysis
[7] = Drug metabolism in pH 7.4 PBS assessed as H2O2-mediated formation of DPN at 75 uM at 37 degC incubated for 10 mins by UV spectroscopy
[8] = Drug metabolism in pH 7.4 PBS assessed as second order rate constant for H2O2-mediated formation of DPN at 75 uM at 37 degC incubated for over 4 hrs by UV spectroscopy
[9] = Drug metabolism in pH 7.4 PBS assessed as formation of DPN at 150 uM at 37 degC incubated for 1 hr in presence of 5 fold excess superoxide by HPLC analysis relative to untreated control
Estrogen receptor beta [10] = molecular target: T1, Estrogen receptor beta; assay: Activation of human ERbeta assessed as induction of transcriptional activation incubated for 24 hrs by luciferase reporter gene assay
[11] = Drug metabolism in pH 7.4 PBS assessed as formation of DPN at 150 uM at 37 degC incubated for 1 hr in presence of 5 fold excess nitric oxide by HPLC analysis
[12] = Drug metabolism in pH 7.4 PBS assessed as formation of DPN at 150 uM at 37 degC incubated for 1 hr in presence of 5 fold excess H2O2 by HPLC analysis
Estrogen receptor beta [13] = molecular target: T1, Estrogen receptor beta; assay: Activation of human ERbeta assessed as induction of transcriptional activation incubated for 24 hrs in presence of 100 uM H2O2 by luciferase reporter gene assay
[14] = Retention time of the compound at 150 uM by HPLC analysis; type: physicochemical
[15] = Drug metabolism in pH 7.4 PBS assessed as H2O2-mediated conversion to E2 incubated at 500 uM at 37 degC for 30 mins by GC-MS analysis
Estrogen receptor beta [16] = molecular target: T1, Estrogen receptor beta; assay: Ratio of RBA for estradiol RBA for test compound for displacement of fluormone tracer from full length human recombinant ERbeta relative to estradiol
[17] = Drug metabolism in pH 7.4 PBS assessed as H2O2-mediated conversion to phenol by measuring second order rate constant for disappearance of starting material at 75 uM incubated at 37 degC for 4 hrs by UV spectroscopy
[18] = molecular target: T2, Estrogen receptor (Homo sapiens) (UniProt P03372); assay: Ratio of RBA for estradiol RBA for test compound for displacement of fluormone tracer from full length human recombinant ERalpha relative to estradiol
T2 sequence (whole entry): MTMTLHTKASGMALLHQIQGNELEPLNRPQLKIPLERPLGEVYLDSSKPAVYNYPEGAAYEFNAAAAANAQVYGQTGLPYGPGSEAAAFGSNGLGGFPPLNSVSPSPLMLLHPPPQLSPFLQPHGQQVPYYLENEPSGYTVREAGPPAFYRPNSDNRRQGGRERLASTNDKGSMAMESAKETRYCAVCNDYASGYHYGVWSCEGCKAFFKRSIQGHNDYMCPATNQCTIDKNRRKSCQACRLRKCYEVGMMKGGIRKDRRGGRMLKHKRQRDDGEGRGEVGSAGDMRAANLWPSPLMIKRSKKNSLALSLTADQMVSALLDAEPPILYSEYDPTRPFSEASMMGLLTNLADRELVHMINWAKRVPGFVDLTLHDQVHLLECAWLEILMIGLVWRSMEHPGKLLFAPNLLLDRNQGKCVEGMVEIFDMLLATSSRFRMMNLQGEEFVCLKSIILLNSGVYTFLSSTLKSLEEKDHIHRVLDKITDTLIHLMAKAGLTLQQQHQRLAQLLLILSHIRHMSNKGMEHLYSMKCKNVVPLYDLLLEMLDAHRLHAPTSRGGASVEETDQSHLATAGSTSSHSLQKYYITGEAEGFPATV

[19] = Drug metabolism in pH 7.4 PBS assessed as H2O2-mediated conversion to E2 by measuring retention time of product at 500 uM incubated at 37 degC for 30 mins by GC-MS analysis; type: physicochemical; conditions: buffer, pH 7.4, 0.5 h
[20] = molecular target: T2, Estrogen receptor (Homo sapiens); assay: Ratio of RBA for DPN to RBA for test compound for displacement of fluormone tracer from full length human recombinant ERalpha relative to estradiol
Estrogen receptor beta [21] = molecular target: T1, Estrogen receptor beta; assay: Ratio of RBA for Estrone to RBA for test compound for displacement of fluormone tracer from full length human recombinant ERbeta relative to estradiol
[22] = Drug metabolism in pH 7.4 PBS assessed as H2O2-mediated conversion to E1 by measuring second order rate constant incubated at 75 uM at 37 degC for 4 hrs by UV spectroscopy
[23] = molecular target: T2, Estrogen receptor (Homo sapiens); assay: Ratio of RBA for Estrone to RBA for test compound for displacement of fluormone tracer from full length human recombinant ERalpha relative to estradiol

T1 sequence (Q92731 whole entry): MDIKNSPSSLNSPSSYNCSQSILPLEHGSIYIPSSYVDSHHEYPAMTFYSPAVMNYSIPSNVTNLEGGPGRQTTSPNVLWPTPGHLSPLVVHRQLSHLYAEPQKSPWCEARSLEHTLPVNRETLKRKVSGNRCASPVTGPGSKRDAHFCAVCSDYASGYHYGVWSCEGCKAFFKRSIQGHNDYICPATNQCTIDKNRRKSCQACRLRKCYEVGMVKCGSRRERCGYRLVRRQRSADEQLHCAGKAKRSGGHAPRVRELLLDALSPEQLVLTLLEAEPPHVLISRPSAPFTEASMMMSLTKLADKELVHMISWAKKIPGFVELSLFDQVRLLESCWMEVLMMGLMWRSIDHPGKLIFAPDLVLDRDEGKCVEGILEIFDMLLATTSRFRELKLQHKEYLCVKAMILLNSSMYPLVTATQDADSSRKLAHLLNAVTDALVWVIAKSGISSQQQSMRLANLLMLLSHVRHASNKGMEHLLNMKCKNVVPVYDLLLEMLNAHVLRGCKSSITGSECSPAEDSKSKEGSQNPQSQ

Row | Ratio (Estrogen receptor beta [2]) | Retention_time [14] [min] | Ratio [20] | Structure (SMILES) | Drug metabolism [1] [%] | Drug metabolism [4] | Drug metabolism [5] | Drug metabolism [6] | Drug metabolism [7] | K [8] [M⁻¹ s⁻¹] | Drug metabolism [9] [%] | Drug metabolism [11] | Drug metabolism [12] | also measured
1 | 20 | 28 |  | CC1(C)OB(c2ccc(CC(C#N)c3ccc(B4OC(C)(C)C(C)(C)O4)cc3)cc2)OC1(C)C (centres undefined) | 50 to 80 | Metabolite not detected | Metabolite not detected | Metabolite not detected | Metabolite detected | 5.14 | 22 | Metabolite not detected | Metabolite detected | EC50 (Estrogen receptor beta [3]): 6.1 nM; EC50 (Estrogen receptor beta [10]): 470 nM; EC50 (Estrogen receptor beta [13]): 1.2 nM
2 |  |  |  | CC1(C)OB(c2ccc3c(c2)CC[C@@H]2[C@@H]3CC[C@]3(C)[C@@H](O)CC[C@@H]23)OC1(C)C |  | Metabolite not detected |  |  |  |  |  |  |  | Drug metabolism [15]: Metabolite detected; Ratio (Estrogen receptor beta [16]): 3; K [17]: 5.57 M⁻¹ s⁻¹; Ratio [18]: 3; Retention_time [19]: 12.5 min
3 |  | 19 |  | N#CC(Cc1ccc(O)cc1)c1ccc(O)cc1 (centres undefined) [DIARYLPROPIONITRILE] |  |  |  |  |  |  |  |  |  | 
4 | 5 | 22 | 4.5 | CC1(C)OB(c2ccc(CC(C#N)c3ccc(O)cc3)cc2)OC1(C)C (centres undefined) | 50 to 80 | Metabolite not detected | Metabolite not detected | Metabolite not detected | Metabolite detected | 6.46 | 22 | Metabolite not detected | Metabolite detected | 
5 | 5 | 23 | 6 | CC1(C)OB(c2ccc(C(C#N)Cc3ccc(O)cc3)cc2)OC1(C)C (centres undefined) | 50 to 80 | Metabolite not detected | Metabolite not detected | Metabolite not detected | Metabolite detected | 5.92 | 22 | Metabolite not detected | Metabolite detected | 
6 |  |  |  | CC1(C)OB(c2ccc3c(c2)CC[C@@H]2[C@@H]3CC[C@]3(C)C(=O)CC[C@@H]23)OC1(C)C |  | Metabolite not detected |  |  |  |  |  |  |  | Ratio (Estrogen receptor beta [21]): 6; K [22]: 4.81 M⁻¹ s⁻¹; Ratio [23]: 6
